Measurements taken from patent publication US10105410B2, “Heparanase inhibitory peptides and use thereof for treating clinical pathologies” (RAMBAM MED-TECH LTD., priority 2014, dated 2018).

B1: heparanase: Single chain GS3 heparanase construct comprising the 8 and 50 kDa subunits, purified from baculovirus-infected cells (protein)
chain: QDVVDLDFFTQEPLHLVSPSFLSVTIDANLATDPRFLILLGSPKLRTLARGLSPAYLRFGGTKTDFLIFDPKKESTFEERSYWQSQVNQDICKYGSIPPDVEEKLRLEWPYQEQLLLREHYQKKFKNSTYSRSSVDVLYTFANCSGLDLIFGLNALLRTADLQWNSSNAQLLLDYCSSKGYNISWELGNEPNSFLKKADIFINGSQLGEDFIQLHKLLRKSTFKNAKLYGPDVGQPRRKTAKMLKSFLKAGGEVIDSVTWHHYYLNGRTATKEDFLNPDVLDIFISSVQKVFQVVESTRPGKKVWLGETSSAYGGGAPLLSDTFAAGFMWLDKLGLSARMGIEVVMRQVFFGAGNYHLVDENFDPLPDYWLSLLFKKLVGTKVLMASVQGSKRRKLRVYLHCTNTDNPRYKEGDLTLYAINLHNVTKYLRLPYPFSNKQVDKYLLRPLGPHGLLSKSVQLNGLTLKMVDDQTLPPLMEKPLRPGSSLGLPAFSYSFFVIRNAKVAACI

How the values were obtained:
[1] = tested on: arterial thrombus in the carotid artery; assay: Carotid artery 90% stenosis arterial thrombosis, MSB staining; type: in vivo, mice; conditions: single s.c. injection, 2 mg/kg; 24 hours after 90% stenosis
Method: In a complimentary experiment, mice returned to normal activity after being subjected to stenosis of 90% of the carotid artery. 24 hours later mice were sacrificed. Sections of the carotid artery were analyzed by MSB (Martin, Scarlet, Blue) staining. In the treatment group, following a single s.c. injection of the peptides, almost no fibrin (thrombus) was formed, while in the control group large arterial thrombus was observed. The results are exemplified in FIG. 6B for a control mouse (left panel) and a mouse treated with 2 mg/kg of the peptide set forth in SEQ ID NO: 4 (right panel).

IVC thrombus = assay: Inferior vena cava (IVC) thrombosis model; type: in vivo, mice; conditions: 2 mg/kg s.c. immediately before IVC exposure; no heparanase injected
Method: A large thrombus located distal to the IVC ligation (FIG. 6A, panel I) and after IVC was harvested (FIG. 6A, panel II), was observed. This observation was verified by H&E staining (FIG. 6A, panel III, ×10; FIG. 6A, panel IV, ×100). In subsequent experiments, peptides 3, 4 and 5 were introduced subcutaneously, at a dose of 2 mg/kg, immediately before the IVC exposure. Heparanase was not injected in this line of experiments. Each experimental group included 5 mice. The IVC was re-exposed (FIG. 6A, panel V) and then dissected (FIG. 6A, panel VI). Note that only engorged blood was present and thrombus distal to the IVC ligation was absent. This observation was verified by H&E staining (FIG. 6A, panel VII, ×10; FIG. 6A, panel VIII, ×100). […] Images were visualized through a 0.82 MDC objective lens, captured with a Nikon […] digital camera (Nikon, Tokyo, Japan), and processed with Adobe Photoshop software (Adobe Systems, San Jose, Calif.).

[2] = tested on: B16 mouse melanoma tumors; assay: Tumor vascularization, MSB stained tumor sections; type: in vivo, mice; conditions: MSB staining
[3] = tested on: procoagulant effect of heparanase; assay: Heparanase-induced coagulation activation in ICR mice, plasma TAT ELISA; type: in vivo; conditions: heparanase 0.5 mg/kg i.p.; peptide 1 or 2 mg/kg s.c. after 30 min; blood after 4 hours
Method: (§1) Thrombin-antithrombin complex (TAT) complex was evaluated according to the manufacturer recommendations by Enzygnost® TAT micro ELISA purchased from Siemens (Marburg, Germany). D-dimer assay was performed on the STA-R evolution analyzer (Diagnostica Stago) using recombinant STA-LIATEST D-DI kit (Diagnostica Stago).
Heparanase (Hepa) was injected intra-peritoneal to ICR mice at a dose of 0.5 mg/kg. After 30 min. peptides corresponding to SEQ ID NOs: 2-5 and 7 were injected at a dose of 1 mg/kg (dashed fill) or 2 mg/kg (solid fill) subcutaneously between the shoulders, into the loose skin over the neck. Blood was drawn after 4 hours, and the plasma was analyzed by ELISA for thrombin-antithrombin (TAT) levels.

coagulation activation = assay: Intra-peritoneal heparanase injection to ICR mice, plasma TAT, D-Dimer, IL-6; type: in vivo; conditions: 0.5 mg/kg i.p.; blood after 4 hours
Method: as §1
Material and method used as in Example 1. Heparanase (Hepa) was injected intra-peritoneal at a dose of 0.5 mg/kg to ICR mice. After 4 hours blood was drawn and the plasma was studied by ELISA to thrombin-antithrombin complex (TAT), D-Dimer as markers of coagulation activation and IL-6 as marker of sepsis severity. Please note that when compared with the control group (PBS) heparanase (Hepa) increased the levels of TAT and D-Dimer in a similar magnitude to that of LPS injected at a dose of 5 mg/kg that cause a moderate sepsis (FIG. 1A, B).

Row | Molecule | clot formation / thrombus distal to the IVC ligation (IVC thrombus) | procoagulant effect of heparanase (plasma TAT levels) [3] | also measured
1 | AEICLLPLDYGPCR [SEQ ID NO: 4, peptide derived from TFPI-2] | absent | – | fibrin (thrombus) formation in carotid artery [1]: early thrombus; tumor vascularization [2]: little to null vascularization
2 | NANNFYTWEAC [SEQ ID NO: 7, peptide derived from TFPI-2] | – | partially inhibited | –
3 | NNAEICLLPLDYGP [SEQ ID NO: 5, peptide derived from TFPI-2] | absent | – | –
4 | ICLLPLDYGPCRAL [SEQ ID NO: 3, peptide derived from TFPI-2] | absent | – | –
5 | NNFYTWEACDDACW [SEQ ID NO: 2, peptide derived from TFPI-2] | – | partially inhibited | –
6 | B1 | – | – | D-Dimer level compared with control group (PBS) (coagulation activation): increased; IL-6 level compared with control group (coagulation activation): did not increase; TAT level compared with control group (PBS) (coagulation activation): increased
